Test results published in patent US5053333A, “Protease” (M & D Research Co., Ltd., priority 1988, dated 1991).
Ends that are not written are not given here.

Test system: Benz-I (protease specific for basic amino acid residue)
Experiment: Cleavage of peptides by Benz-I, HPLC and amino acid composition of fragments
Assay type: biochemical, Kluyveromyces lactis IFO 1903
Procedure: The composition of the employed reaction mixture and the examination conditions were as follows. Namely, 500 μl of a reaction mixture containing 25 μmol of tris hydrochloride buffer solution (pH 7.0), 0.25 μmol of CaCl2, 5 mg of Lubrol PX, 100 μg of NaN3, each peptide at various concentrations and Benz-I at various concentrations was allowed to react at 30° C. for 20 hours.
50-μl portions of the reaction mixture were sampled after the reaction for 0 and 20 hours and 50 μl of a reaction terminating agent comprising 0.2% of TFA and 10 mM of EDTA was added thereto. The resulting mixture was analyzed by HPLC. The HPLC was conducted by CH3 CN gradient elution with the use of an Ultron NC18 column (0.45×15 cm) or a TSK gel ODS-80TM column (0.46×25 cm) in the presence of 0.1% of TFA.
The residual reaction mixture was chromatographed under the same conditions as those employed in the above analysis and main peaks were fractionated. The fractionated eluate was evaporated to dryness on a centrifugal evaporator and decomposed with hydrochloric acid at 110° C. for 24 hours. Then each fragment was assumed from the amino acid composition.

Question: YGGFMRRVRPE [BAM-12P] was tested. Which “Fragment obtained (assumed from amino acid composition) after reaction with Benz-I” value did it give?
Answer: Its value is “Val-Gly-Arg-Pro-Glu”.
